Results: the C3SDB collision cross section collection

Key:
[1] = instrument: TW, calibrated with phosphatidylcholines (ESI+) and phosphatidylethanolamines (ESI-)
[2] = [M+H]+; instrument: DT; single field, calibrated with Agilent tune mix (Agilent)
[3] = instrument: DT, single field, calibrated with Agilent tune mix (Agilent)
[4] = instrument: TW, calibrated with phosphatidylcholines (ESI+) and phosphatidylethanolamines (ESI-), doubly charged cardiolipins calibrated with poly-DL-…

## CCCCCCCCCCCCC=CC[C@@H](O)[C@H](COP(=O)([O-])OCC[N+](C)(C)C)NC(=O)CCCCCCCCCCCCCCCCC [SM(d18:1/18:0)]
[1]; [M+H]+
  collision cross section (N2): 286.6 Å²
[2]
  collision cross section (N2): 290.2 Å²

## CC/C=C\C/C=C\C/C=C\C/C=C\CCCCCCC(=O)OC[C@@H](O)COP(=O)([O-])OCC[N+](C)(C)C [LPC(20:4)]
[1]; [M+H]+
  collision cross section (N2): 232.4 Å²

## CCCCCCCCCCCCCCCCCC(=O)N[C@@H](CO)[C@H](O)CCCCCCCCCCCCCCC [Cer(d18:0/18:0)]
[1]; [M+H]+
  collision cross section (N2): 263.1 Å²

## CCCCC/C=C\C/C=C\C/C=C\C/C=C\CCCC(=O)O[C@H](COC(=O)CCCCCCC/C=C\CCCCCCCC)COP(=O)(O)O[C@H]1C(O)C(O)C(O)[C@@H](OP(=O)(O)O)C1O (some centres undefined) [PIP(38:5)]
[1]; [M+H-H2O]+
  collision cross section (N2): 299.7 Å²

## CCCCCCCCCCCCC=CC[C@@H](O)[C@H](CO)NC(=O)CC=CCCCCCCCCCCCCCCCCCC [Cer(d18:1/22:1)]
[1]; [M+H]+
  collision cross section (N2): 270.2 Å²
[1]; [M-H]-
  collision cross section (N2): 260.2 Å²

## CCCCCCCCCCCCC=CC[C@@H](O)[C@H](CO[C@@H]1O[C@H](CO)[C@@H](O)C(O)C1O)NC(=O)CC=CCCCCCCCCCCCCCC (some centres undefined) [GlcCer(d18:1/18:1)]
[1]; [M+H]+
  collision cross section (N2): 281.8 Å²

## CC/C=C\C/C=C\C/C=C\C/C=C\C/C=C\CCCC(=O)O[C@H](CO/C=C\CCCCCCCCCCCCCC)COP(=O)(O)OCCN [PE(p36:5)]
[1]; [M+H]+
  collision cross section (N2): 274.2 Å²

## CC/C=C\C/C=C\C/C=C\C/C=C\CCCCC(=O)OC[C@H](COP(=O)([O-])OCC[N+](C)(C)C)OC(=O)CCCCC/C=C\C/C=C\C/C=C\C/C=C\CCCCC [PC(40:8)]
[1]; [M+H]+
  collision cross section (N2): 291.6 Å²

## CCCCC/C=C\C/C=C\C/C=C\CCCCC(=O)OC[C@H](COP(=O)([O-])OCC[N+](C)(C)C)OC(=O)CCCCCCC/C=C\CCCCCCCC [PC(36:4)]
[3]; [M+HCOO]-
  collision cross section (N2): 288.4 Å²
[1]; [M+CH3COO]-
  collision cross section (N2): 290.8 Å²
[1]; [M+H]+
  collision cross section (N2): 286 Å²

## CCCCCCCCCCCCC=CC[C@@H](O)[C@H](COP(=O)([O-])OCC[N+](C)(C)C)NC(=O)CC=CCCCCCCCCCCCCCCCCCC [SM(d18:1/22:1)]
[1]; [M+H]+
  collision cross section (N2): 295 Å²

## CCCCCCCCCCCCC=CC[C@@H](O)[C@H](CO)NC(=O)CC=CCCCCCCCCCCCCCCCCCCCCCC [Cer(d18:1/26:1)]
[1]; [M+H]+
  collision cross section (N2): 282.4 Å²

## CCCCCCCCCCCCC=CC[C@@H](O)[C@H](COP(=O)([O-])OCC[N+](C)(C)C)NC(=O)CCCCCCCCCCCCCCC [SM(d18:1/16:0)]
[1]; [M+H]+
  collision cross section (N2): 281.1 Å²

## CCCCC/C=C\C/C=C\C/C=C\CCCCCCC(=O)OC[C@@H](O)COP(=O)([O-])OCC[N+](C)(C)C [LPC(20:3)]
[1]; [M+H]+
  collision cross section (N2): 239 Å²

## CCCCC/C=C\C/C=C\C/C=C\C/C=C\CCCCCC(=O)O[C@H](CO/C=C\CCCCCCCCCCCCCC)COP(=O)(O)OCCN [PE(p38:4)]
[3]; [M+H]+
  collision cross section (N2): 281.5 Å²
[1]; [M+H]+
  collision cross section (N2): 280.6 Å²
[1]; [M-H]-
  collision cross section (N2): 270.3 Å²

## CCCCC/C=C\C/C=C\C/C=C\CCCCCCC(=O)O[C@H](CO/C=C\CCCCCCCCCCCCCCCC)COP(=O)(O)OCCN [PE(p38:3)]
[1]; [M+H]+
  collision cross section (N2): 281.4 Å²
[1]; [M-H]-
  collision cross section (N2): 270.9 Å²

## CCCCC/C=C\C/C=C\CCCCCCCCCCCC(=O)O[C@H](COC(=O)CCCCCCC/C=C\C/C=C\CCCCC)COP(=O)([O-])OCC[N+](C)(C)C [PC(40:4)]
[3]; [M+H]+
  collision cross section (N2): 300.2 Å²
[1]; [M+H]+
  collision cross section (N2): 296.1 Å²

## CCCCCCCCCCCCC=CC[C@@H](O)[C@H](CO[C@@H]1O[C@H](CO)[C@@H](O)C(O)C1O)NC(=O)CC=CCCCCCCCCCCCCCCCCCCCC (some centres undefined) [GlcCer(d18:1/24:1)]
[1]; [M+H]+
  collision cross section (N2): 298.2 Å²
[1]; [M+Na]+
  collision cross section (N2): 297.3 Å²

## CC/C=C\C/C=C\C/C=C\C/C=C\CCCCC(=O)O[C@H](COC(=O)CCCCCCCCCCC/C=C\C/C=C\CCCCC)COP(=O)(O)OC[C@@H](O)CO [PG(40:6)]
[3]; [M+NH4]+
  collision cross section (N2): 296.6 Å²
[3]; [M+Na]+
  collision cross section (N2): 292.4 Å²
[1]; [M+Na]+
  collision cross section (N2): 290 Å²
[1]; [M-H]-
  collision cross section (N2): 281.9 Å²

## CCCCCC/C=C\CCCCCCCC(=O)OC[C@H](COP(=O)(O)OC[C@@H](O)COC(=O)CCCCCCCCCCCCCCC)OC(=O)CCCCCCC/C=C\CCCCCCCCCC [AcylPG(52:2)]
[4]; [M-H]-
  collision cross section (N2): 330.34 Å²

## CCCCCCCC/C=C\CCCCCCCC(=O)OCC(COP(=O)(O)OCC(O)COP(=O)(O)OCC(COC(=O)CCCCCCCCCCCCCCC)OC(=O)CCCCCCC/C=C\CCCCCCCC)OC(=O)CCCCCCCCCCCCCCC (centres undefined) [CL(68:2)]
[4]; [M-2H]2-
  collision cross section (N2): 407.34 Å²

## CCCCCCCC/C=C\CCCCCCCC(=O)OC(COC(=O)CCCCCCCCCCCCCCC)COP(=O)(O)O (centres undefined) [PA(34:1)]
[4]; [M-H]-
  collision cross section (N2): 255.63 Å²

## CCCCCCCCCC/C=C\CCCCCCCCCC(=O)O[C@H](COC(=O)CCCCCCCCCCCCC)COP(=O)(O)O[C@H]1C(O)C(O)C(O)[C@@H](O)C1O (some centres undefined) [PI(36:1)]
[3]; [M+H]+
  collision cross section (N2): 301.6 Å²
[3]; [M+NH4]+
  collision cross section (N2): 302.2 Å²
[3]; [M+Na]+
  collision cross section (N2): 299 Å²
[3]; [M-H]-
  collision cross section (N2): 290.5 Å²
[1]; [M+Na]+
  collision cross section (N2): 297.2 Å²
[1]; [M-H]-
  collision cross section (N2): 289.6 Å²

## CCCCCC/C=C\CCCCCCCC(=O)OCC(COP(=O)(O)OCC(O)CO)OC(=O)CCCCCCC/C=C\CCCCCC (centres undefined) [PG(32:2)]
[4]; [M+Na]+
  collision cross section (N2): 272.38 Å²
[4]; [M-H]-
  collision cross section (N2): 261.31 Å²

## CCCCCC/C=C\CCCCCCCC(=O)OC(COC(=O)CCCCCCCCCCCCCC)COP(=O)(O)OCC(O)COP(=O)(O)OCC(COC(=O)CCCCCCCCCCCCCCC)OC(=O)CCCCCCC/C=C\CCCCCC (centres undefined) [CL(63:2)]
[4]; [M+2K]2+
  collision cross section (N2): 421 Å²
[4]; [M-2H]2-
  collision cross section (N2): 394.34 Å²

## CCCCCCCC/C=C\CCCCCCCC(=O)OC(COC(=O)CCCCCCCCCCCCCCC)COP(=O)(O)OCC(O)COP(=O)(O)OCC(COC(=O)CCCCCCCC1CC1CCCCCC)OC(=O)CCCCCCCCCCCCCCC (centres undefined) [CL(67:2)]
[4]; [M+2K]2+
  collision cross section (N2): 427.9 Å²
[4]; [M-2H]2-
  collision cross section (N2): 404.3 Å²

## CCCCCC/C=C\CCCCCCCC(=O)O[C@H](CO/C=C\CCCCCCCCCCCCCCCCCC)COP(=O)(O)OCCN [PE(p36:1)]
[1]; [M+H]+
  collision cross section (N2): 279.7 Å²
[1]; [M-H]-
  collision cross section (N2): 267.3 Å²

## CCCCCCCCCCCCCCCC(=O)O[C@H](CO)COP(=O)([O-])OCC[NH3+] [LPE(0:0/16:0)]
[4]; [M+H]+
  collision cross section (N2): 216.39 Å²
[4]; [M+Na]+
  collision cross section (N2): 220.61 Å²
[4]; [M-H]-
  collision cross section (N2): 206.05 Å²

## CCCCCC/C=C\CCCCCCCC(=O)OC(COC(=O)CCCCCCCCCCCCCCC)COP(=O)(O)OCC(O)COP(=O)(O)OCC(COC(=O)CCCCCCCCCCCCCC)OC(=O)CCCCCCCCCCCCCCC (centres undefined) [CL(63:1)]
[4]; [M+2K]2+
  collision cross section (N2): 421.5 Å²
[4]; [M-2H]2-
  collision cross section (N2): 394.72 Å²

## CCCCCCCC/C=C\CCCCCCCC(=O)OC(COC(=O)CCCCCCCCCCCCCCCCC)COP(=O)(O)OCCN (centres undefined) [PE(36:1)]
[4]; [M+H]+
  collision cross section (N2): 280.06 Å²
[4]; [M-H]-
  collision cross section (N2): 270.25 Å²

## CCCC/C=C\CCCCCCCC(=O)O[C@H](CO/C=C\CCCCCCCCCCCCCCCCCC)COP(=O)(O)OCCN [PE(p34:1)]
[3]; [M+H]+
  collision cross section (N2): 273.2 Å²
[3]; [M+Na]+
  collision cross section (N2): 276.9 Å²
[3]; [M-H]-
  collision cross section (N2): 262.2 Å²
[1]; [M-H]-
  collision cross section (N2): 262.1 Å²

## CCCCC/C=C\C/C=C\CCCCCCCC(=O)O[C@H](COC(=O)CCCCCCCCCCCCCCCCC)COP(=O)(O)O [PA(36:2)]
[3]; [M+NH4]+
  collision cross section (N2): 274.5 Å²
[3]; [M+Na]+
  collision cross section (N2): 274 Å²
[3]; [M-H]-
  collision cross section (N2): 260.2 Å²
[1]; [M-H]-
  collision cross section (N2): 259.5 Å²

## CCCCCC/C=C\CCCCCCCC(=O)OCC(COP(=O)(O)OCC(O)COP(=O)(O)OCC(COC(=O)CCCCCCCCCCCCCCC)OC(=O)CCCCCCC/C=C\CCCCCCCC)OC(=O)CCCCCCC/C=C\CCCCCC (centres undefined) [CL(66:3)]
[4]; [M+2K]2+
  collision cross section (N2): 425.7 Å²
[4]; [M-2H]2-
  collision cross section (N2): 401.91 Å²

## CCCCCC/C=C\CCCCCCCC(=O)OC[C@H](O)COP(=O)(O)OC[C@@H](COC(=O)CCCCCCC/C=C\CCCCCC)OC(=O)CCCCCCC/C=C/CCCCCCCCCC [AcylPG(52:3)]
[4]; [M-H]-
  collision cross section (N2): 328.87 Å²

## CCCCCCCC/C=C\CCCCCCCC(=O)OC(COC(=O)CCCCCCCCCCCCCCCCC)COP(=O)(O)OCC(O)CO (centres undefined) [PG(36:1)]
[4]; [M-H]-
  collision cross section (N2): 276.25 Å²

## CCCCCC/C=C\CCCCCCCC(=O)OCC(COP(=O)(O)OCC(O)COP(=O)(O)OCC(COC(=O)CCCCCCCCCCCCCCC)OC(=O)CCCCCCCC1CC1CCCCCC)OC(=O)CCCCCCC/C=C\CCCCCC (centres undefined) [CL(65:3)]
[4]; [M+2K]2+
  collision cross section (N2): 424.2 Å²
[4]; [M-2H]2-
  collision cross section (N2): 400.07 Å²

## CCCCCCCCCCCCCCCCCCCC(=O)N[C@@H](CO)[C@H](O)CCCCCCCCCCCCCCC [Cer(d18:0/20:0)]
[1]; [M+H]+
  collision cross section (N2): 269.1 Å²

## CCCCC/C=C\C/C=C\CCCCCCCCCC(=O)O[C@H](CO/C=C\CCCCCCCCCCCCCC)COP(=O)(O)OCCN [PE(p36:2)]
[3]; [M+H]+
  collision cross section (N2): 277.1 Å²
[3]; [M-H]-
  collision cross section (N2): 267.6 Å²
[1]; [M+H]+
  collision cross section (N2): 278.1 Å²
[1]; [M-H]-
  collision cross section (N2): 266.5 Å²

## CCCCCCCCC1CC1CCCCCCCC(=O)O[C@H](CO)COP(=O)(O)OCC(O)CO (some centres undefined) [LPG(19:1)]
[4]; [M-H]-
  collision cross section (N2): 220.89 Å²
